Data from PMC9490236, “Accurate de novo design of membrane-traversing macrocycles” (Cell, 2022).
“And” between values parts separate entries of the source, which are not always exact repeats. Identical values can stand only once. Like-named read-outs stand apart in the source and are kept apart here. Where a SMILES comes first, the peptide text is derived from it. [ ]: non-standard residue; d: D form. NMeL = CN[C@@H](CC(C)C)C(=O)O; Sar = CNCC(=O)O

Assay: Pharmacokinetics and oral bioavailability of D11.2 in male SD rats (IV, PO, SQ)
Assay type: in vivo
Settings: for half-life: read-out: T1/2z (converted); for MRT inf: in vivo
Description: In vivo bioavailability assays were conducted in mice and rats. D8.3.p1 and D10.1 were studied in female Balb/C mice by van Voorhis group at University of Washington. D11.2 was evaluated in Sprague Dawley (SD) rats by Robert Griffin’s group at Takeda Pharmaceuticals. D11.3 was studied in the male swiss albino mice by the contract research organization, GVK Biosciences Pvt. Ltd., Hyderabad, India. All animals used in these studies were handled in strict accordance with practices made to minimize suffering. All animal experiments conducted at the University of Washington, USA, and Takeda Pharmaceuticals, USA were approved by the Institutional Animal Care and Use Committee. Animal studies at GVK Biosciences were reviewed and approved by the Institutional Animal Ethics Committee of GVK Biosciences.
We selected four designed macrocycles with diverse structures and in vitro rates of permeability for in vivo oral bioavailability studies in the rodent models. Due to the intensive resource requirements for such studies, these studies were conducted by three different research groups. D8.3.p1 and D10.1 were studied in female Balb/C mice by van Voorhis group at University of Washington. D11.2 was evaluated in Sprague Dawley (SD) rats by Robert Griffin’s group at Takeda Pharmaceuticals. D11.3 was studied in the male swiss albino mice by the contract research organization, GVK Biosciences Pvt. Ltd., Hyderabad, India.
We evaluated the pharmacokinetic properties for D11.2 in male SD rats (n=3). D11.2 was dissolved in 2% DMSO/0.1% Tween80 and dosed by IV, PO, and SQ routes. Plasma samples were collected at multiple time points up to 24 hours. The quantification limit was established to be 2 ng/mL for the assay conditions tested. Pharmacokinetic parameters were modeled using the Phoenix WinNonlin software package.
Dosing vehicle: DMSO (2%) + 0.1% Tween80(IV, PO, SQ)
Dose: 1 mg/kg (PO, SQ, IV) • Sampling times: 0.083, 0.25, 0.5, 1, 2, 4, 6, 8, 24 h (PO, SQ, IV)

[1] = IV 1 mg/kg, individual rats R1, R2, R3, 1 mg/kg
[2] = PO 1 mg/kg, individual rats R4, R5, R6, 1 mg/kg
[3] = SQ 1 mg/kg, individual rats R7, R8, R9
[4] = male, Sprague Dawley, rat, plasma, iv, 1 mg/kg, IV 1 mg/kg, Mean
[5] = male, Sprague Dawley, rat, plasma, iv, 1 mg/kg, IV 1 mg/kg, individual rats R1, R2, R3
[6] = male, Sprague Dawley, rat, plasma, po, 1 mg/kg, PO 1 mg/kg, Mean
[7] = male, Sprague Dawley, rat, plasma, po, 1 mg/kg, PO 1 mg/kg, individual rats R4, R5, R6
[8] = male, Sprague-Dawley, rat, plasma, subcutaneous, 1 mg/kg, SQ 1 mg/kg, Mean
[9] = male, Sprague-Dawley, rat, plasma, subcutaneous, 1 mg/kg, SQ 1 mg/kg, individual rats R7, R8, R9

CC[C@@H](C)[C@H]1NC(=O)[C@@H]2CCCN2C(=O)[C@@H]([C@H](C)CC)NC(=O)CN(C)C(=O)[C@H](CC(C)C)NC(=O)[C@@H](Cc2ccccc2)NC(=O)[C@H](CC(C)C)N(C)C(=O)[C@H]2CCCN2C(=O)[C@@H](CC(C)C)NC(=O)[C@H](CC(C)C)NC(=O)[C@H]2CCCN2C1=O [Design D11.2, DILE DPRO LEU DLEU DPRO *LEU DPHE LEU *GLY DILE PRO] (cyclo(L[Sar][dI]P[dI][dP]L[dL][dP][NMeL][dF]))
AUClast [1]: 702 ng·h/mL and 858 ng·h/mL
AUC∞ [1]: 738 ng·h/mL and 926 ng·h/mL
C0 [1]: 669 ng/mL and 1234 ng/mL
CL [1]: 1.35 L/h/kg and 1.08 L/h/kg
Cmax [1]: 796 ng/mL and 499 ng/mL
MRT∞ [1]: 2.34 h and 2.51 h
T1/2z [1]: 2.05 h and 2.74 h
Vss [1]: 3.17 L/kg and 2.72 L/kg
Vz [1]: 4.00 L/kg and 4.27 L/kg
%F [2]: 13.0% and 8.18%
AUClast [2]: 89.3 ng·h/mL and 59.1 ng·h/mL
AUC∞ [2]: 95.9 ng·h/mL and 75.8 ng·h/mL
Cmax [2]: 35.2 ng/mL and 28.2 ng/mL
MRT∞ [2]: 3.02 h and 3.86 h
T1/2z [2]: 2.06 h and 2.53 h
Tmax [2]: 15 min
%F [3]: 160% and 105%
AUClast [3]: 741 ng·h/mL and 841 ng·h/mL
AUC∞ [3]: 777 ng·h/mL and 853 ng·h/mL
Cmax [3]: 99.4 ng/mL and 95.1 ng/mL
MRT∞ [3]: 7.64 h and 6.14 h
T1/2z [3]: 5.00 h and 3.71 h
AUC(0-inf) [4]: 780 ng·h/mL
AUC(0-t) [4]: 734 ng·h/mL
clearance [4]: 21.8 mL/min/kg
C0 (male, Sprague Dawley, rat, plasma, iv, 1 mg/kg, IV 1 mg/kg, Mean, read-out: C0): 843 ng/mL
Cmax (male, Sprague Dawley, rat, plasma, iv, 1 mg/kg, IV 1 mg/kg, Mean, read-out: Cmax): 605 ng/mL
half-life [4]: 137 min
Tmax (male, Sprague Dawley, rat, plasma, iv, 1 mg/kg, IV 1 mg/kg, Mean, read-out: Tmax): 5 min
Vd (male, Sprague Dawley, rat, plasma, iv, 1 mg/kg, IV 1 mg/kg, Mean, read-out: Vss): 3.04 L/kg
Vd (male, Sprague Dawley, rat, plasma, iv, 1 mg/kg, IV 1 mg/kg, Mean, read-out: Vz): 4.24 L/kg
AUC(0-inf) [5]: 674 ng·h/mL
AUC(0-t) [5]: 642 ng·h/mL
clearance [5]: 24.7 mL/min/kg
C0 (male, Sprague Dawley, rat, plasma, iv, 1 mg/kg, IV 1 mg/kg, individual rats R1, R2, R3, read-out: C0): 626 ng/mL
Cmax (male, Sprague Dawley, rat, plasma, iv, 1 mg/kg, IV 1 mg/kg, individual rats R1, R2, R3, read-out: Cmax): 519 ng/mL
half-life [5]: 125 min
Tmax (male, Sprague Dawley, rat, plasma, iv, 1 mg/kg, IV 1 mg/kg, individual rats R1, R2, R3, read-out: Tmax): 5 min
Vd (male, Sprague Dawley, rat, plasma, iv, 1 mg/kg, IV 1 mg/kg, individual rats R1, R2, R3, read-out: Vss): 3.23 L/kg
Vd (male, Sprague Dawley, rat, plasma, iv, 1 mg/kg, IV 1 mg/kg, individual rats R1, R2, R3, read-out: Vz): 4.46 L/kg
AUC(0-inf) [6]: 84.3 ng·h/mL
AUC(0-t) [6]: 71.7 ng·h/mL
bioavailability [6]: 11.1%
Cmax (male, Sprague Dawley, rat, plasma, po, 1 mg/kg, PO 1 mg/kg, Mean, read-out: Cmax): 31.6 ng/mL
half-life [6]: 140 min
Tmax (male, Sprague Dawley, rat, plasma, po, 1 mg/kg, PO 1 mg/kg, Mean, read-out: Tmax): 25 min
AUC(0-inf) [7]: 81.3 ng·h/mL
AUC(0-t) [7]: 66.8 ng·h/mL
bioavailability [7]: 12.1%
Cmax (male, Sprague Dawley, rat, plasma, po, 1 mg/kg, PO 1 mg/kg, individual rats R4, R5, R6, read-out: Cmax): 31.3 ng/mL
half-life [7]: 145 min
Tmax (male, Sprague Dawley, rat, plasma, po, 1 mg/kg, PO 1 mg/kg, individual rats R4, R5, R6, read-out: Tmax): 30 min
Cmax (male, Sprague Dawley, rat, plasma, sc, 1 mg/kg, SQ 1 mg/kg, Mean, read-out: Cmax): 109 ng/mL
half-life (male, Sprague Dawley, rat, plasma, sc, 1 mg/kg, SQ 1 mg/kg, Mean): 265 min
Tmax (male, Sprague Dawley, rat, plasma, sc, 1 mg/kg, SQ 1 mg/kg, Mean, read-out: Tmax): 240 min
Cmax (male, Sprague Dawley, rat, plasma, subcutaneous, 1 mg/kg, SQ 1 mg/kg, individual rats R7, R8, R9, read-out: Cmax): 131 ng/mL
half-life (male, Sprague Dawley, rat, plasma, subcutaneous, 1 mg/kg, SQ 1 mg/kg, individual rats R7, R8, R9): 271 min
Tmax (male, Sprague Dawley, rat, plasma, subcutaneous, 1 mg/kg, SQ 1 mg/kg, individual rats R7, R8, R9, read-out: Tmax): 240 min
bioavailability (male, Sprague-Dawley, rat, plasma, sc, 1 mg/kg, SQ 1 mg/kg, individual rats R7, R8, R9): 92.1%
AUC(0-inf) [8]: 903 ng·h/mL
AUC(0-t) [8]: 874 ng·h/mL
bioavailability [8]: 119%
AUC(0-inf) [9]: 1080 ng·h/mL
AUC(0-t) [9]: 1040 ng·h/mL
MRT inf (rat, 1 mg/kg, SQ 1 mg/kg, Mean): 6.86 h
MRT inf (rat, 1 mg/kg, SQ 1 mg/kg, individual rats R7, R8, R9): 6.81 h
MRT inf (rat, iv, 1 mg/kg, IV 1 mg/kg, Mean): 2.35 h
MRT inf (rat, iv, 1 mg/kg, IV 1 mg/kg, individual rats R1, R2, R3): 2.18 h
MRT inf (rat, po, 1 mg/kg, PO 1 mg/kg, Mean): 3.42 h
MRT inf (rat, po, 1 mg/kg, PO 1 mg/kg, individual rats R4, R5, R6): 3.38 h
